Experimental data: patent publication US8669361B2, “Pyrazol-4-yl-heterocyclyl-carboxamide compounds and methods of use” (Genentech, Inc., priority 2010, dated 2014)
Like-named read-outs stand apart in the source and are kept apart here.

Experiments:
[1] = biological target: PIM2 (Homo sapiens (Human), UniProt Q9P1W9); assay: Pim kinase binding activity, Caliper LC3000 microfluidic peptide phosphorylation assay (Example 901); assay type: biochemical; details: 50 pM PIM2, 1 μM FAM-peptide, 10 μM ATP, 90 minutes at room temperature; read-out: PIM2 LC3K (KI)
PIM2, sequence (Q9P1W9 whole entry): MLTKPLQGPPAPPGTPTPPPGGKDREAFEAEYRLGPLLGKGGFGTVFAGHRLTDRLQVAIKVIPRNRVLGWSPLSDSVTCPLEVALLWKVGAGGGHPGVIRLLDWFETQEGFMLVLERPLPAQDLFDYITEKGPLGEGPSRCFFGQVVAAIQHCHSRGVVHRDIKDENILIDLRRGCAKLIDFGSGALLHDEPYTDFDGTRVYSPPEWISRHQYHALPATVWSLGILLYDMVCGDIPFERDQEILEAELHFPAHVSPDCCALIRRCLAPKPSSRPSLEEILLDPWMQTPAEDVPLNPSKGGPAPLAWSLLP
Description: (§1) A fluorescent-labeled Pim-specific peptide substrate, was custom synthesized by American Peptide Company (Sunnyvale, Calif.). Reaction Buffer contained 10 mM HEPES, pH 7.2, 10 mM MgCl2, 0.01% Tween 20, 2 mM DTT. Termination Buffer contained 190 mM HEPES, pH 7.2, 0.015% Brij-35, 0.2% Coating Reagent 3 (Caliper Life Sciences, Hopkinton, Mass.), 20 mM EDTA. Separation Buffer contained 100 mM HEPES, pH 7.2, 0.015% Brij-35, 0.1% Coating Reagent 3, 1:200 Coating Reagent 8 (Caliper Life Sciences, Hopkinton, Mass.), 10 mM EDTA and 5% DMSO.
PIM reactions were carried out in a final volume of 10 μL per well in a 384-well plate. […] After 90 minutes of incubation at room temperature, the phosphorylation reaction was stopped by the addition of 10 μL Termination Buffer. The product and substrate in each independent reaction were separated on a 12-sipper microfluidic chip (Caliper Life Sciences, Hopkinton, Mass.) run on a Caliper LC3000® (Caliper Life Sciences, Hopkinton, Mass.). The separation of product and substrate was optimized by choosing voltages and pressure using Caliper's Optimizer software (Hopkinton, Mass.). The separation conditions used a downstream voltage of −500V, an upstream voltage of −2150V, and a screening pressure of −1.2 psi. […] Substrate conversion was calculated from the electropherogram using HTS Well Analyzer software (Caliper Life Sciences, Hopkinton, Mass.). Ki values for the test compound were calculated.

[2] = biological target: PIM3 (Homo sapiens (Human), UniProt Q86V86); assay: as above; assay type: biochemical; details: 55 pM PIM3, 1 μM FAM-peptide, 10 μM ATP, 90 minutes at room temperature; read-out: PIM3 LC3K (KI)
Description: as §1, with “PIM-1, -2, and -3 enzymes were generated as fusion proteins expressed in bacteria and purified by IMAC column chromatography (Sun, X., Chiu, J. F., and He, Q. Y. (2005) Expert Rev. Proteomics, 2:649-657). A fluorescent-labeled” for “A fluorescent-labeled”
(§2) PIM reactions were carried out in a final volume of 10 μL per well in a 384-well plate. A standard enzymatic reaction, initiated by the addition of 5 μL 2×ATP and test compound to 5 μL of 2× enzyme and FAM-peptide, contained 20 pM PIM1, 50 pM PIM2, or 55 pM PIM3, 1 μM FAM-peptide, and 10 μM ATP, in Reaction Buffer. After 90 minutes of incubation at room temperature, the phosphorylation reaction was stopped by the addition of 10 μL Termination Buffer. The product and substrate in each independent reaction were separated on a 12-sipper microfluidic chip (Caliper Life Sciences, Hopkinton, Mass.) run on a Caliper LC3000® (Caliper Life Sciences, Hopkinton, Mass.). The separation of product and substrate was optimized by choosing voltages and pressure using Caliper's Optimizer software (Hopkinton, Mass.). The separation conditions used a downstream voltage of −500V, an upstream voltage of −2150V, and a screening pressure of −1.2 psi. The product and substrate fluorophore were excited at 488 nm and detected at 530 nm. Substrate conversion was calculated from the electropherogram using HTS Well Analyzer software (Caliper Life Sciences, Hopkinton, Mass.). Ki values for the test compound were calculated.

[3] = biological target: PIM1 (Homo sapiens (Human), UniProt P11309); assay: as above; assay type: biochemical; details: 20 pM PIM1, 1 μM FAM-peptide, 10 μM ATP, 90 minutes at room temperature; read-out: PIM1 LC3K (KI)
PIM1, sequence (P11309 whole entry, the tested form may be a part): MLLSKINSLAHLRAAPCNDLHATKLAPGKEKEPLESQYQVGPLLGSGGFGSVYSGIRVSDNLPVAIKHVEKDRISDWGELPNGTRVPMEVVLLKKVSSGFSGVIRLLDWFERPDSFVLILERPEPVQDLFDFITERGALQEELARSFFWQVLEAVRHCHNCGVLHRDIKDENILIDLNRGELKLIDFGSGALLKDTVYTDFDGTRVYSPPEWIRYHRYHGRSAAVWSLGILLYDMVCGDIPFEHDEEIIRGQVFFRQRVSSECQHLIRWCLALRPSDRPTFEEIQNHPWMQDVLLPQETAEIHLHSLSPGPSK
Description: as §1, with “PIM-1, -2, and -3 enzymes were generated as fusion proteins expressed in bacteria and purified by IMAC column chromatography (Sun, X., Chiu, J. F., and He, Q. Y. (2005) Expert Rev. Proteomics, 2:649-657). A fluorescent-labeled” for “A fluorescent-labeled”
as §2

[4] = test system: BaF3 PIM1 cells; assay: In vitro cell proliferation potency assay, Cell Titer Glo (Example 902); assay type: cell-based, murine; details: Mus musculus
Description: (§3) BaF3 parental line was obtained from the DSMZ repository. BaF3 lines transfected with PIM 1 or PIM2 were generated. Mouse IL-3 was purchased from R&D Systems. G418 was purchased from Clontech. Media for BaF3 parental line contained RPMI, 10% FBS, 2 mM L-Glutamine, 2 ng/mL mIL-3. Media for BaF3 PIM1 & 2 lines contained RPMI, 10% FBS, 2 mM L-Glutamine, […]. Media for MM1.S (multiple myeloma cells) line contained RPMI, 10% FBS, 2 mM L-Glutamine.
(§4) BaF3, a murine interleukin-3 dependent pro-B cell line, parental cells, BaF3 PIM1 cells, BaF3 PIM2 cells, and MM1.S (multiple myeloma) cells were seeded at 2 k/well, 5 k/well, 5 k/well, and 10 k/well respectively, in a 384-well plate, at 45 μL/well. Test compound was added at 5 μL/well. BaF3 cells (parental and transfected) were incubated overnight, while MM1.S cells were incubated for 72 hours at 37° C., 5% CO2. Cell Titer Glo Reagent (Promega) was added at 50 μL/well, the plates were incubated for 30 minutes, and their luminescence read on an HT Analyst. IC50/EC50 values for the test compound were calculated.

[5] = test system: BaF3 parental cells; assay: as above; assay type: cell-based, murine; details: Mus musculus
Description: as §3, §4

## Cn1cc(NC(=O)c2nc(-c3c(F)cccc3F)sc2N)cn1 [Example 102, 5-amino-2-(2,6-difluorophenyl)-N-(1-methyl-1H-pyrazol-4-yl)thiazole-4-carboxamide]
[1]
  Ki: 110 nM
[2]
  Ki: 8.8 nM
[3]
  Ki: 16 nM

## Cn1ncc(NC(=O)c2nc(-c3c(F)cccc3F)sc2N)c1NCC1CCNCC1 [Example 105, 5-amino-2-(2,6-difluorophenyl)-N-(1-methyl-5-(piperidin-4-ylmethylamino)-1H-pyrazol-4-yl)thiazole-4-carboxamide]
[1]
  Ki: 148 nM
[2]
  Ki: 5.77 nM
[3]
  Ki: 4.54 nM

## Cn1ncc(NC(=O)c2nc(-c3ccccc3F)sc2N)c1N1CCC[C@H](N)C1 [Example 107, (S)-5-amino-N-(5-(3-aminopiperidin-1-yl)-1-methyl-1H-pyrazol-4-yl)-2-(2-fluorophenyl)thiazole-4-carboxamide]
[1]
  Ki: 20.1 nM
[2]
  Ki: 0.575 nM
[3]
  Ki: 1.22 nM

## Cn1ncc(NC(=O)c2nc(-c3ccccc3)ccc2N)c1N1CCC(N)CC1 [Example 109, 3-amino-N-(5-(4-aminopiperidin-1-yl)-1-methyl-1H-pyrazol-4-yl)-6-phenylpicolinamide]
[1]
  Ki: 41.1 nM
[2]
  Ki: 2.63 nM
[3]
  Ki: 0.762 nM

## Cn1ncc(NC(=O)c2nc(-c3ccccc3F)ccc2N)c1N1CCC[C@@H](N)C1 [Example 112, (R)-3-amino-N-(5-(3-aminopiperidin-1-yl)-1-methyl-1H-pyrazol-4-yl)-6-(2-fluorophenyl)picolinamide]
[1]
  Ki: 2.49 nM
[2]
  Ki: 0.34 nM
[3]
  Ki: 0.246 nM

## Cn1ncc(NC(=O)c2nc(-c3ccccc3F)ccc2N)c1OC1CCNCC1 [Example 116, 3-amino-6-(2-fluorophenyl)-N-(1-methyl-5-(piperidin-4-yloxy)-1H-pyrazol-4-yl)picolinamide]
[1]
  Ki: 26.2 nM
[2]
  Ki: 4.97 nM
[3]
  Ki: 4.36 nM

## Cn1ncc(NC(=O)c2nc(-c3ccccc3F)ccc2N)c1OCC1CCNCC1 [Example 117, 3-amino-6-(2-fluorophenyl)-N-(1-methyl-5-(piperidin-4-ylmethoxy)-1H-pyrazol-4-yl)picolinamide]
[4]; BaF3, read-out: Prolif BaF3 PIM1 (IC50)
  IC50: 4900 nM
[5]; BaF3, read-out: Prolif BaF3 IL3 (IC50)
  IC50: > 25000 nM

## Cn1ncc(NC(=O)c2nc(Cl)cnc2N)c1N1CCC[C@H](N)C1 [Example 123, (S)-3-amino-N-(5-(3-aminopiperidin-1-yl)-1-methyl-1H-pyrazol-4-yl)-6-chloropyrazine-2-carboxamide]
[1]
  Ki: 587 nM
[2]
  Ki: 215 nM
[3]
  Ki: 137 nM

## Cn1ncc(NC(=O)c2nc(-c3ccccc3F)ccc2N)c1N1CC[C@@H](N)C1 [Example 124, (R)-3-amino-N-(5-(3-aminopyrrolidin-1-yl)-1-methyl-1H-pyrazol-4-yl)-6-(2-fluorophenyl)picolinamide]
[1]
  Ki: 28.5 nM
[2]
  Ki: 3.79 nM

## Cn1ncc(NC(=O)c2nc(-c3c(F)cccc3F)sc2N)c1N1CCC(CN)CC1 [Example 133, 5-amino-N-(5-(4-(aminomethyl)piperidin-1-yl)-1-methyl-1H-pyrazol-4-yl)-2-(2,6-difluorophenyl)thiazole-4-carboxamide]
[4]; BaF3 line transfected with PIM1, incubated overnight, read-out: Prolif BaF3 PIM1 (IC50)
  IC50: 258 nM
[5]; BaF3 parental line, medium with 2 ng/mL mIL-3, incubated overnight, read-out: Prolif BaF3 IL3 (IC50)
  IC50: 25000 nM

## Cn1ncc(NC(=O)c2nc(-c3ccccc3F)ccc2N)c1N1CCC[C@H](N)CC1 [Example 142, (S)-3-amino-N-(5-(4-aminoazepan-1-yl)-1-methyl-1H-pyrazol-4-yl)-6-(2-fluorophenyl)picolinamide]
[1]
  Ki: 3.13 nM
[2]
  Ki: 0.245 nM
[3]
  Ki: 0.368 nM

## Cn1ncc(NC(=O)c2cncc(-c3ccccc3F)n2)c1N1CCC[C@H](N)CC1 [Example 220, (S)—N-(5-(4-aminoazepan-1-yl)-1-methyl-1H-pyrazol-4-yl)-6-(2-fluorophenyl)pyrazine-2-carboxamide]
[1]
  Ki: 581 nM
[2]
  Ki: 34.2 nM
[3]
  Ki: 22 nM

## CN1CCC(c2c(NC(=O)c3nc(-c4c(F)cccc4F)sc3N)cnn2C)CC1 [Example 231, 5-amino-2-(2,6-difluorophenyl)-N-(1-methyl-5-(1-methylpiperidin-4-yl)-1H-pyrazol-4-yl)thiazole-4-carboxamide]
[1]
  Ki: 201 nM
[2]
  Ki: 5.26 nM
[3]
  Ki: 7.65 nM

## Cn1ncc(NC(=O)c2ccc(F)c(-c3c(F)cccc3F)n2)c1N1CCC[C@@H](N)CC1 [Example 238, (R)—N-(5-(4-aminoazepan-1-yl)-1-methyl-1H-pyrazol-4-yl)-6-(2,6-difluorophenyl)-5-fluoropicolinamide]
[1]
  Ki: 17.3 nM
[2]
  Ki: 2.48 nM
[3]
  Ki: 0.897 nM

## Cn1ncc(NC(=O)c2nc(-c3c(F)cccc3F)sc2N)c1C1CCNCC1 [Example 263, 5-amino-2-(2,6-difluorophenyl)-N-(1-methyl-5-(piperidin-4-yl)-1H-pyrazol-4-yl)thiazole-4-carboxamide]
[1]
  Ki: 185 nM
[2]
  Ki: 6.12 nM
[3]
  Ki: 10.4 nM

## CN[C@H]1CCCN(c2c(NC(=O)c3nc(-c4c(F)cccc4F)sc3N)cnn2C)CC1 [Example 328, (S)-5-amino-2-(2,6-difluorophenyl)-N-(1-methyl-5-(4-(methylamino)azepan-1-yl)-1H-pyrazol-4-yl)thiazole-4-carboxamide]
[1]
  Ki: 4.37 nM
[2]
  Ki: 0.176 nM
[3]
  Ki: 0.096 nM

## Nc1sc(-c2c(F)cccc2F)nc1C(=O)Nc1cnn(CCF)c1 [Example 353, 5-amino-2-(2,6-difluorophenyl)-N-(1-(2-fluoroethyl)-1H-pyrazol-4-yl)thiazole-4-carboxamide]
[1]
  Ki: 38 nM
[2]
  Ki: 19 nM
[3]
  Ki: 11.9 nM

## CCn1ncc(NC(=O)c2nc(-c3ccccc3F)sc2N)c1N1CCC[C@@H](N)CC1 [Example 364, (R)-5-Amino-N-(5-(4-aminoazepan-1-yl)-1-ethyl-1H-pyrazol-4-yl)-2-(2-fluorophenyl)thiazole-4-carboxamide]
[1]
  Ki: 124 nM
[2]
  Ki: 24 nM
[3]
  Ki: 20 nM

## Cn1ncc(NC(=O)c2nc(-c3c(F)cccc3F)sc2N)c1C1CCC(N)CC1 (stereo not drawn) [Example 369, 5-amino-N-(5-(4-aminocyclohexyl)-1-methyl-1H-pyrazol-4-yl)-2-(2,6-difluorophenyl)thiazole-4-carboxamide]
[1]
  Ki: 12.5 nM
[2]
  Ki: 0.735 nM
[3]
  Ki: 0.462 nM
